Assay results as given in paper PMC9684079, “Pharmacological targeting of glutamatergic neurons within the brainstem for weight reduction” (Nature Metabolism, 2022).
pIC50, pKi: −log10 of the molar value.

Assays:
[1] = target: T1, Peptidase, Matrix metalloprotease, neutral endopeptidase (Homo sapiens, UniProt P08473); test: biochemical; parameters: Cerep/Eurofins selectivity panel, enzymes, per cent inhibition at 10 uM; settings: read-out: % Inhibition
T1 construct: gene MME

Androgen (Testosterone) = target: T2, Androgen (Testosterone) (Homo sapiens, UniProt P10275); test: biochemical; parameters: Cerep/Eurofins selectivity panel, receptors, channels and transporters, per cent inhibition at 10 uM; settings: read-out: % Inhibition
T2 construct: gene AR

[2] = target: T3, Hcrtr1 (orexin 1 receptor) (Homo sapiens, UniProt O43613); test: radioligand displacement of [3H]SB674042; also FLIPR Ca2+ antagonism in Chem-1 cells (IC50 […]); format: binding
T3 construct: membranes from CHO-K1 cells stably expressing HCRTR1

[3] = target: T4, Nitric Oxide Synthase, neuronal (nNOS) (Rattus norvegicus, UniProt P29476); test: biochemical; parameters: Cerep/Eurofins selectivity panel, enzymes, per cent inhibition at 10 uM; settings: read-out: % Inhibition
T4 construct: gene Nos1

Insulin = target: T5, Insulin (Rattus norvegicus, UniProt P15127); test: biochemical; parameters: Cerep/Eurofins selectivity panel, receptors, channels and transporters, per cent inhibition at 10 uM; settings: read-out: % Inhibition
T5 construct: gene Insr

Phospholipase PLA2-I = target: T6, Phospholipase PLA2-I (Sus scrofa, UniProt P00592); test: biochemical; parameters: Cerep/Eurofins selectivity panel, enzymes, per cent inhibition at 10 uM; settings: read-out: % Inhibition
T6 construct: gene PLA2G1B

[4] = target: T7, Cholinesterase, Acetyl, ACES (Homo sapiens, UniProt P22303); test: biochemical; parameters: Cerep/Eurofins selectivity panel, enzymes, per cent inhibition at 10 uM
T7 construct: gene ACHE

Calcium Channel N-type = target: T8, Calcium Channel N-type (Rattus norvegicus, UniProt Q02294); test: biochemical; parameters: Cerep/Eurofins selectivity panel, receptors, channels and transporters, per cent inhibition at 10 uM; settings: read-out: % Inhibition
T8 construct: gene Cacna1b

Anaphylatoxin C5a = target: T9, Anaphylatoxin C5a (Homo sapiens, UniProt P21730); test: biochemical; parameters: Cerep/Eurofins selectivity panel, receptors, channels and transporters, per cent inhibition at 10 uM; settings: read-out: % Inhibition
T9 construct: gene C5AR1

[5] = target: T10, Phosphodiesterase PDE10A2 (Homo sapiens, UniProt Q9Y233); test: biochemical; parameters: Cerep/Eurofins selectivity panel, enzymes, per cent inhibition at 10 uM; settings: read-out: % Inhibition
T10 construct: gene PDE10A; isoform PDE10A2

5-Lipoxygenase = target: T11, 5-Lipoxygenase (Homo sapiens, UniProt P09917); test: biochemical; parameters: Cerep/Eurofins selectivity panel, enzymes, per cent inhibition at 10 uM; settings: read-out: % Inhibition
T11 construct: gene ALOX5

Monoamine Oxidase MAO-A = target: T12, Monoamine Oxidase MAO-A (Homo sapiens, UniProt P21397); test: biochemical; parameters: Cerep/Eurofins selectivity panel, enzymes, per cent inhibition at 10 uM; settings: read-out: % Inhibition
T12 construct: gene MAOA

[6] = target: Protein Serine/Threonine Kinase, MAPK3 (ERK1) (Homo sapiens, UniProt P27361); test: biochemical; parameters: Cerep/Eurofins selectivity panel, enzymes, per cent inhibition at 10 uM; settings: read-out: % Inhibition
[7] = target: Protein Serine/Threonine Kinase, MAPK1 (ERK2) (Homo sapiens, UniProt P28482); test: biochemical; parameters: Cerep/Eurofins selectivity panel, enzymes, per cent inhibition at 10 uM; settings: read-out: % Inhibition
Peptidase, Factor Xa = target: T13, Peptidase, Factor Xa (Homo sapiens, UniProt P00742); test: biochemical; parameters: Cerep/Eurofins selectivity panel, enzymes, per cent inhibition at 10 uM; settings: read-out: % Inhibition
T13 construct: gene F10; factor Xa

Cyclooxygenase COX-1 = target: T14, Cyclooxygenase COX-1 (Homo sapiens, UniProt P23219); test: biochemical; parameters: Cerep/Eurofins selectivity panel, enzymes, per cent inhibition at 10 uM; settings: read-out: % Inhibition
T14 construct: gene PTGS1

[8] = target: Protein Serine/Threonine Phosphatase, PPP3CA (Calccineurin, PP2B) (Homo sapiens, UniProt Q08209); test: biochemical; parameters: Cerep/Eurofins selectivity panel, enzymes, per cent inhibition at 10 uM; settings: read-out: % Inhibition
Carbonic Anhydrase II = target: T15, Carbonic Anhydrase II (Homo sapiens, UniProt P00918); test: biochemical; parameters: Cerep/Eurofins selectivity panel, enzymes, per cent inhibition at 10 uM; settings: read-out: % Inhibition
T15 construct: gene CA2

[9] = target: Protein Serine/Threonine Kinase, MAP2K1 (MEK1) (Homo sapiens, UniProt Q02750); test: biochemical; parameters: Cerep/Eurofins selectivity panel, enzymes, per cent inhibition at 10 uM; settings: read-out: % Inhibition
[10] = target: T16, Serotonin (5-Hydroxytryptamine) 5-HT4 (Cavia porcellus, UniProt O70528); test: biochemical; parameters: Cerep/Eurofins selectivity panel, receptors, channels and transporters, per cent inhibition at 10 uM; settings: read-out: % Inhibition
T16 construct: gene HTR4

[11] = target: T17, Protein Serine/Threonine Kinase, ATK1 (PRKBA) (Homo sapiens, UniProt P31749); test: biochemical; parameters: Cerep/Eurofins selectivity panel, enzymes, per cent inhibition at 10 uM; settings: read-out: % Inhibition
T17 construct: gene AKT1

[12] = target: T18, Peptidase, Tumor necrosis factorα Converting enzyme (TACE) (Homo sapiens, UniProt P78536); test: biochemical; parameters: Cerep/Eurofins selectivity panel, enzymes, per cent inhibition at 10 uM; settings: read-out: % Inhibition
T18 construct: gene ADAM17

mouse Hcrtr1 = target: T19, mouse Hcrtr1 (Mus musculus, UniProt P58307); test: FLIPR Ca2+ flux, antagonism of orexin A response; format: cell-based
T19 construct: CHO-K1 cells expressing Gα16 and mouse Hcrtr1

[13] = target: Protein Serine/Threonine Kinase, CDC2/CCNB1 (CDK1/cyclinB) (Homo sapiens, UniProt P06493); test: biochemical; parameters: Cerep/Eurofins selectivity panel, enzymes, per cent inhibition at 10 uM; settings: read-out: % Inhibition
[14] = target: T20, Nitric Oxide Synthase, inducible (iNOS) (Mus musculus, UniProt P29477); test: biochemical; parameters: Cerep/Eurofins selectivity panel, enzymes, per cent inhibition at 10 uM; settings: read-out: % Inhibition
T20 construct: gene Nos2

T8 sequence (Q02294 whole entry): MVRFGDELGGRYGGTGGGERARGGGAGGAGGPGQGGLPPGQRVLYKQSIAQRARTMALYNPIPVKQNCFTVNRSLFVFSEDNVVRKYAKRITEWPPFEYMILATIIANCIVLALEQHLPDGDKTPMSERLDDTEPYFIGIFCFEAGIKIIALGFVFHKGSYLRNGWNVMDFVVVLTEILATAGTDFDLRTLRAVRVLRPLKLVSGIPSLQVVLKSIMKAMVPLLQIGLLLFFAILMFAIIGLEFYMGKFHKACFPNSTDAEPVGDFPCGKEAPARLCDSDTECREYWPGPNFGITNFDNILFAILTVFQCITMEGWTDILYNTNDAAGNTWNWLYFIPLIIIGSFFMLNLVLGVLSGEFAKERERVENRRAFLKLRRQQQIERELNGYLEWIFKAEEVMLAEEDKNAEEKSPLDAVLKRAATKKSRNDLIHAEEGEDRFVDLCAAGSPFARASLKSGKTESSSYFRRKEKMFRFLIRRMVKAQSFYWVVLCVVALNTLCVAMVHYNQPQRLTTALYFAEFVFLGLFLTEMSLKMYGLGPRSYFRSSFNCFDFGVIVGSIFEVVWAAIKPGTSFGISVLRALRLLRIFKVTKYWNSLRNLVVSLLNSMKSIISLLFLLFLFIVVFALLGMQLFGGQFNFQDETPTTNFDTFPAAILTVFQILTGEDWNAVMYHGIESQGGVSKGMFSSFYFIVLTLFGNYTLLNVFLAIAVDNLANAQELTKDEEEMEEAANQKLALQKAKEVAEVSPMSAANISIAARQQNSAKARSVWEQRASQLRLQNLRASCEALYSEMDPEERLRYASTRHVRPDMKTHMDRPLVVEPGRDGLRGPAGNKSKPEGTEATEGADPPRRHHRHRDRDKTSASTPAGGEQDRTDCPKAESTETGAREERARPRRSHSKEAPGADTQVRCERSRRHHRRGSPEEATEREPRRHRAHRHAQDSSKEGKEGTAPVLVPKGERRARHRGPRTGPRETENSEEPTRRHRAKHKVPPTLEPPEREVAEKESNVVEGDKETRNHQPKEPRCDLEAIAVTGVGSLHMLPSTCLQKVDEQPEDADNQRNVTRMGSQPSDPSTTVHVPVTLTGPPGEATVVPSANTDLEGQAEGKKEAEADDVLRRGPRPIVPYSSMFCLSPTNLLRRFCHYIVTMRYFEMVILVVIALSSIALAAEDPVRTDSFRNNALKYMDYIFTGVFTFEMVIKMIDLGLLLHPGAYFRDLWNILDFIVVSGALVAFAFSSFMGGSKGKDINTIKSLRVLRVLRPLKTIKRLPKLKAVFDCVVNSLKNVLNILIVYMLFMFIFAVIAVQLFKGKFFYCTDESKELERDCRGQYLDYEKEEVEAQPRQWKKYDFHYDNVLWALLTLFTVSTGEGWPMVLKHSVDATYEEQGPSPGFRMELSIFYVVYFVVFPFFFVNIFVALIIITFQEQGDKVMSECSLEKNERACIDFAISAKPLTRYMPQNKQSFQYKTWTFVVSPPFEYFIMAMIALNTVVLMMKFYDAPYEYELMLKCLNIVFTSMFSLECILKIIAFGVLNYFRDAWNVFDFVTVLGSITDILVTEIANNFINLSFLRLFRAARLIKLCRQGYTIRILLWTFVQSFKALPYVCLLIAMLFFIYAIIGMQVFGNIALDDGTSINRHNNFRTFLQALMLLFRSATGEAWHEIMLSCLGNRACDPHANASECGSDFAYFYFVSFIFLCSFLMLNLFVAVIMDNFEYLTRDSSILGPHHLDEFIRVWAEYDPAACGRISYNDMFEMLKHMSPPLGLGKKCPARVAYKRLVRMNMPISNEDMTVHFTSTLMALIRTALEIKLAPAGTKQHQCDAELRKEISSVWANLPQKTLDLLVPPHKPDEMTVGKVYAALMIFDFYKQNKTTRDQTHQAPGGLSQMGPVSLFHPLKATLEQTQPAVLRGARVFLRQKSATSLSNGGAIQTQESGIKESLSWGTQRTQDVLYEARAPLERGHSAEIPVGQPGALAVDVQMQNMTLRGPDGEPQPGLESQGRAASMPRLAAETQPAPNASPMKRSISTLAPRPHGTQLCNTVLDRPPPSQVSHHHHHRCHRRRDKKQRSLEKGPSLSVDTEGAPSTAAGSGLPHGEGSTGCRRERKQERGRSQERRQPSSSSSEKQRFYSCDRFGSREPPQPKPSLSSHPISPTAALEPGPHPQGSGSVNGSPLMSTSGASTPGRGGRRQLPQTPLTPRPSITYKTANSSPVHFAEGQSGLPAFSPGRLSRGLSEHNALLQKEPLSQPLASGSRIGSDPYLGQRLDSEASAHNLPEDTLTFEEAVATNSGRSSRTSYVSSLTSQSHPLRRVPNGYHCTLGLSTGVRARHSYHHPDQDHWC
T18 sequence (P78536 whole entry): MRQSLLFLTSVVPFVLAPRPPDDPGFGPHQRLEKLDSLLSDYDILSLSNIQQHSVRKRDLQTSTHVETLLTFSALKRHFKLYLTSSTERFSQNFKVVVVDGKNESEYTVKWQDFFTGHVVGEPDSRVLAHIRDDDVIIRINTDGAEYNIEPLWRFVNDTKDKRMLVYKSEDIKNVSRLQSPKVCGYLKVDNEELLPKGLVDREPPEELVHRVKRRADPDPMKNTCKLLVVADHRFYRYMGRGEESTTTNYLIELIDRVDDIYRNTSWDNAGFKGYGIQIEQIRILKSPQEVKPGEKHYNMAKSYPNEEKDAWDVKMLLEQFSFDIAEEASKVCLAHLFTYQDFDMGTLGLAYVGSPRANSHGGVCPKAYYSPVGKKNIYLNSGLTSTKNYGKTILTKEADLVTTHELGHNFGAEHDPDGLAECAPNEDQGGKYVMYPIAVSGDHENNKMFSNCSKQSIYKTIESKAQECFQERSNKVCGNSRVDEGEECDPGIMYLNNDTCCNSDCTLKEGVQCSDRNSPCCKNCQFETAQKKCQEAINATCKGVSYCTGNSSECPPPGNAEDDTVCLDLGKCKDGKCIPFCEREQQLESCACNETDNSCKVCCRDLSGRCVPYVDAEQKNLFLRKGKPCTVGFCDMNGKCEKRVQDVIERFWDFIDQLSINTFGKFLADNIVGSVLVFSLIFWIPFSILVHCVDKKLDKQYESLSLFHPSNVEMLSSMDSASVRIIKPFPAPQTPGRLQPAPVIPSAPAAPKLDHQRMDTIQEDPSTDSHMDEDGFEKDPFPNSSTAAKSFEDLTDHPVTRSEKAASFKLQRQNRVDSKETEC
Protein Serine/Threonine Kinase, MAPK3 (ERK1), sequence (P27361 whole entry): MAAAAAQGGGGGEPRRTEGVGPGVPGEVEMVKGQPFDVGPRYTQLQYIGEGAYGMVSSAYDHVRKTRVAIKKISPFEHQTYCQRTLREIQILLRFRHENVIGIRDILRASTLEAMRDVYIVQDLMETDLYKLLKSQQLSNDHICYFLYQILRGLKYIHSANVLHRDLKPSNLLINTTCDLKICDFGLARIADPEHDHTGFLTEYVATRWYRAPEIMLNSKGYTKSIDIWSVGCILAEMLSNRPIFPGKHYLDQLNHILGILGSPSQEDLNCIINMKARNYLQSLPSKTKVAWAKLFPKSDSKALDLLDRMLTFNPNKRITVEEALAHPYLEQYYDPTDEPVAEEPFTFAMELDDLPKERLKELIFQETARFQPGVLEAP
T12 sequence (P21397 whole entry): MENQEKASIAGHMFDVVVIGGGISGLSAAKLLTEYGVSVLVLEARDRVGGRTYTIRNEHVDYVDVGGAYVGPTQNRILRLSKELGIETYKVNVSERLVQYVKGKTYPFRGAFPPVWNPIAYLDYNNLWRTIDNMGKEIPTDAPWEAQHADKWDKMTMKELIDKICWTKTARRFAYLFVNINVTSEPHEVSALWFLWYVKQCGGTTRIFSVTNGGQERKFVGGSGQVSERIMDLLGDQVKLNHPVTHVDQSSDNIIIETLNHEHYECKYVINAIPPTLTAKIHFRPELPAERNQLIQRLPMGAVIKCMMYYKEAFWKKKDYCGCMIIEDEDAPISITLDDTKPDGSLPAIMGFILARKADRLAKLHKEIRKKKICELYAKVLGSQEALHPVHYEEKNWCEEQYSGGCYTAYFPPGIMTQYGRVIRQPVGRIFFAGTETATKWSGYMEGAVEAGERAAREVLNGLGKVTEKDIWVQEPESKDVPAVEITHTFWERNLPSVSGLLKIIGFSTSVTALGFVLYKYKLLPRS
T7 sequence (P22303 whole entry): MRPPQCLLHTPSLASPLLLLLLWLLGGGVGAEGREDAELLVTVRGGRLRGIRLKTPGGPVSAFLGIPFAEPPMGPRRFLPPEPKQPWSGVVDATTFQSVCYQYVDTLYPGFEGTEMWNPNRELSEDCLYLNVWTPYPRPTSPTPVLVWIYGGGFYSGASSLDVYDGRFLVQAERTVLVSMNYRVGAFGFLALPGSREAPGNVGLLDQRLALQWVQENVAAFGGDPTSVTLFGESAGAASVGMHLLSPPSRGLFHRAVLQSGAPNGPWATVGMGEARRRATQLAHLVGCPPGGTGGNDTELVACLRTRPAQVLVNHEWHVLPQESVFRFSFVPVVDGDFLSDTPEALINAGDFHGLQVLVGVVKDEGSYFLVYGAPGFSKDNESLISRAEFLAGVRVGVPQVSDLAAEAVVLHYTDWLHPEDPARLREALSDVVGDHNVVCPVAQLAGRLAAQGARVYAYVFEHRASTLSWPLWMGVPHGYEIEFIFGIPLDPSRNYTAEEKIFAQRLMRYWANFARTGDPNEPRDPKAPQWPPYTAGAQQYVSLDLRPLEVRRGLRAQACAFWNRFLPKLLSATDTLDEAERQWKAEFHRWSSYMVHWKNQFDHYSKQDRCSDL
T19 sequence (P58307 whole entry): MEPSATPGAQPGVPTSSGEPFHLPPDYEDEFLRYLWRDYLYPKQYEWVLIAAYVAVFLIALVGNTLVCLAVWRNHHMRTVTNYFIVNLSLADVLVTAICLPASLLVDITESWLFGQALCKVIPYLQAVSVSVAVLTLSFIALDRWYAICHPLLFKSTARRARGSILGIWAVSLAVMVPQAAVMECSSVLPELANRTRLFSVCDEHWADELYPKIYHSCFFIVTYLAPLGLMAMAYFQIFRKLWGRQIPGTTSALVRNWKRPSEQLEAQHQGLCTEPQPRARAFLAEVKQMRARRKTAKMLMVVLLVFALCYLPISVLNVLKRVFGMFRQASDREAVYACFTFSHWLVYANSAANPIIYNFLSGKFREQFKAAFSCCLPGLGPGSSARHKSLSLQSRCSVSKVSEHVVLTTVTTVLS

## C[C@]1(Nc2cnc(C(F)(F)F)cn2)CCC[C@@H]1NC(=O)c1ncccc1-n1nccn1 [CVN45502]
[1]
  inhibition at 10 µM: 4%
Androgen (Testosterone)
  inhibition at 10 µM: -5%
[2]
  pKi: 7.86
[3]
  inhibition at 10 µM: 22%
Insulin
  inhibition at 10 µM: 2%
Phospholipase PLA2-I
  inhibition at 10 µM: 10%
[4]
  inhibition at 10 µM: -8%
Calcium Channel N-type
  inhibition at 10 µM: -1%
Anaphylatoxin C5a
  inhibition at 10 µM: 6%
[5]
  inhibition at 10 µM: 35%
5-Lipoxygenase
  inhibition at 10 µM: 14%
Monoamine Oxidase MAO-A
  inhibition at 10 µM: 11%
[6]
  inhibition at 10 µM: 8%
[7]
  inhibition at 10 µM: 5%
Peptidase, Factor Xa
  inhibition at 10 µM: -2%
Cyclooxygenase COX-1
  inhibition at 10 µM: 5%
[8]
  inhibition at 10 µM: 12%
Carbonic Anhydrase II
  inhibition at 10 µM: -4%
[9]
  inhibition at 10 µM: -4%
[10]
  inhibition at 10 µM: -4%
[11]
  inhibition at 10 µM: -7%
[12]
  inhibition at 10 µM: 2%
Mouse Hcrtr1
  pIC50: 7.74
[13]
  inhibition at 10 µM: 14%
[14]
  inhibition at 10 µM: 5%
